One data set deals with c-Cbl (Homo sapiens (Human), UniProt P22681). Put plainly: C-cbl LCK Ub TR-FRET assay (C-cbl Lck HTRF). In kind it is biochemical. In outline: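 Biotin-Cbl-b (16 nM) or biotin-c-Cbl (12 nM) at 2× preincubated with compound 60 min, then His-LCK (120 nM), 1 mM ATP and MgCl2 (2× mix) added for 90 min at RT. Buffer: HEPES pH 7.0, DTT. UBE2D2–HA-ubiquitin transfer read by TR-FRET (665/615 nm); IC50 versus no-LCK and DMSO controls, 10-point dilutions.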
A general note: In TR-FRET formats the signal depends on donor and acceptor labels being close together.

For a further data set, the system named is hWB. Put plainly: IL-2 hWB assay. In kind it is cell-based. Particulars: Homo sapiens.
The nature of data set [1]: Liver microsomes metabolic stability, cynomolgus monkey. In kind it is in vitro ADME. The method, then: Metabolic stability of test compounds was evaluated in pooled rat, mouse, dog, and cynomolgus monkey liver microsomes (BD Biosciences, San Jose, CA). The incubation conditions were as follows: 1 μM of the tested compound, 1 mM NADPH, 0.5 mg/mL microsomal protein in 0.1 M potassium phosphate buffer (pH 7.4). Following a 5-minute pre-incubation period, the enzymatic reactions were initiated by the addition of NADPH and test compound to the microsomes diluted in phosphate buffered saline. The mixtures were incubated at 37° C. for 0, 20, 40, and 60 min.
Compound concentrations were assessed by LC-MS/MS. Intrinsic clearance based upon microsomal stability data was determined using a substrate depletion method and scaled to hepatic clearance using the well-stirred model (Obach, R. S.; Baxter, J. G.; Liston, T. E.; Silber, B. M.; Jones, B. C.; MacIntyre, F.; Rance, D. J.; Wastall, P., “The Prediction of Human Pharmacokinetic Parameters from Preclinical and in vitro Metabolism Data”, J. Pharmacol. Exp. Ther., (1997), 283 (1), 46-58).
In general terms: Liver microsomes are vesicles of endoplasmic reticulum, rich in cytochrome P450 enzymes.

The target in data set [2] is Human Cbl-b (residues 40-426) (Homo sapiens (Human), UniProt Q13191). Kind of data set: Cbl-b SPR assay (incl. multi-point chaser variation). In kind it is binding. The method, then:
Affinity of binding to Cbl-b and c-Cbl for compounds described herein can be assessed by surface plasmon resonance (SPR) according to the following protocol. All experiments were recorded on a Biacore™ 8K or Biacore™ 8K+ (Cytiva) with both surface preparation and experimental measurements performed at 20° C. in an assay buffer consisting of 50 mM HEPES, pH 7.5, 0.15 M NaCl, 0.001% (v/v) Tween® 20, 0.2 mM tris(2-carboxyethyl)phosphine, 0.025% (w/v) carboxymethylated dextran (average MW 10 kDa), 0.2% (w/v) PEG 3350, and 2% DMSO. […]
For SPR measurements, 6 concentrations with 2 fold serial dilution were measured with blanks flanking each series for double referencing. […] SPR sensorgrams were recorded in multi-cycle kinetics format, with a contact time of 60 seconds and a flow rate of 40 μl/min, the dissociation time was varied between 120-1200 seconds aiming for 4-5 half-lives of the measured interaction. […]
In the case of potent compounds, the protein-compound half-life cannot be accurately measured using routine fitting of the single cycle titration data. The kd is measured independently by determining the percentage unoccupied compound binding site over time by measuring the binding of a chaser compound measured by SPR.
Chaser binding was measured by a multicycle kinetics SPR experiment using a contact time of 20 seconds, a flow rate of […], and a dissociation time of 120 seconds. […]
(In general: SPR reads the build-up and loss of mass on a sensor chip optically.)

Molecules are shown by their SMILES.

Sequence of Human Cbl-b (residues 40-426) (Q13191 40-426): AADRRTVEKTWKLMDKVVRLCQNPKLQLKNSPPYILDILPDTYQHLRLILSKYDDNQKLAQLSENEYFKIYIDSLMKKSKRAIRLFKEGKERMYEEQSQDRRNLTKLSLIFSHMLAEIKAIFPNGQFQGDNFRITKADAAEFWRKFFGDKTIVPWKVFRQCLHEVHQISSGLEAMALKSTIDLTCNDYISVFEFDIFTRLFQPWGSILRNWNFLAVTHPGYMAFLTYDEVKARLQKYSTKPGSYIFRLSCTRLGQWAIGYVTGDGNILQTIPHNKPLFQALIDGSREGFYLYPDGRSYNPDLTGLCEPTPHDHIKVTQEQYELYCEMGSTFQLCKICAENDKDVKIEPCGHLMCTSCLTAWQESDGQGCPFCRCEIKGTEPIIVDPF
Sequence of c-Cbl (P22681 47-435): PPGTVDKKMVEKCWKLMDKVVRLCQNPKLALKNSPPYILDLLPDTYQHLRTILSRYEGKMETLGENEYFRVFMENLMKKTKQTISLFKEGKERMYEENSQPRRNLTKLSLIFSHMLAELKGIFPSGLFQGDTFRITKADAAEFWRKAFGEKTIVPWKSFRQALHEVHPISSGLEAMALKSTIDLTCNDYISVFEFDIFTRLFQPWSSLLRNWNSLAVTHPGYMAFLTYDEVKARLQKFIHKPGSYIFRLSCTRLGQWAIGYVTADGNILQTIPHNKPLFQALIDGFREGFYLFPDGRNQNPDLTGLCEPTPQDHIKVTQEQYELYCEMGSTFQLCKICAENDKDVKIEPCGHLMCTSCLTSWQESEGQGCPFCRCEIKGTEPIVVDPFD

A word on the IC50: it is the concentration that gives 50% inhibition. Usually EC50 stands for the concentration at which the effect is half-maximal. One may read the Kd as a measure of binding affinity in units of concentration. In turn, `CC(C)[C@H]1CN(C)CCN1Cc1cc(C(=O)Nc2cccc(C3(Cc4nncn4C)CC(F)(F)C3)c2)nc(C2CC2)c1` [Compound 224, (S)-6-cyclopropyl-N-(3-(3,3-difluoro-1-((4-methyl-4H-1,2,4-triazol-3-yl)methyl)cyclobutyl)phenyl)-4-((2-isopropyl-4-methylpiperazin-1-yl)methyl)picolinamide] returned a half-inhibitory concentration (IC50) against c-Cbl of 5 nM. The midpoint of the response in the data set on hWB, the EC50, lay at 250 nM. For the same compound, the “LM (H/R/M/D/C)” value in data set [1] turned out to be 40. The Kd in data set [2] (read-out: SPR Kd kin) is 5.6 nM. Also, the “SPR Kd kin (select.)” value in data set [2] (selectivity) is given as 1.3 x.

Source of the values: patent US20240300927A1, “AMIDES AS CBL-B INHIBITORS” (Genentech, Inc., priority 2021, published 2024).
